The values that follow come from ChEMBL document CHEMBL1129946, “New esters of 4-amino-5-chloro-2-methoxybenzoic acid as potent agonists and antagonists for 5-HT4 receptors” (J Med Chem, 1997).

Assay [1] addresses T1, 5-hydroxytryptamine receptor 4 (Cavia porcellus, UniProt O70528). Briefly: 5-hydroxytryptamine 4 receptor agonist activity, concentration which gave 50% increase in the response to electrically-stimulated myenteric plexus and longitudinal muscle of the guinea pig ileum. In kind it is functional, tissue-based.
The target of assay [2] is 5-hydroxytryptamine receptor 4 (Rattus norvegicus, UniProt Q62758). In words: Binding affinity towards 5-hydroxytryptamine 4 receptor was determined in rat striatal membranes using [3H]GR-113808 as radioligand. In kind it is cell membranes, Striatum, Membrane.
The target of assay [3] is T2, Serotonin 3 (5-HT3) receptor (Rattus norvegicus, UniProt P35563+Q9JJ16).
T2 sequence (P35563 whole entry): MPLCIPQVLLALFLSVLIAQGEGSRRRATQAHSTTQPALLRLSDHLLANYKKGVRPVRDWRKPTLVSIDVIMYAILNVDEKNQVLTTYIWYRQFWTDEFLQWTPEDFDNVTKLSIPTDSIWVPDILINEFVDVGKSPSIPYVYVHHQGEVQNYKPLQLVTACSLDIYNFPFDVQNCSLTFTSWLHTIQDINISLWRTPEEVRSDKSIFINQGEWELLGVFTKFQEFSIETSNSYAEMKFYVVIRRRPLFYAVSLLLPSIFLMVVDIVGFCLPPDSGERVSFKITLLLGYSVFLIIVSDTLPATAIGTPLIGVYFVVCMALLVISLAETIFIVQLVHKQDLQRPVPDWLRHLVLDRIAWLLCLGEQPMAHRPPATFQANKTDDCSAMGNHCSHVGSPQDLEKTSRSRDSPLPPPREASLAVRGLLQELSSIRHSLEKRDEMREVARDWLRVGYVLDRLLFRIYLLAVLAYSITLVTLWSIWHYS
T2 sequence (Q9JJ16 whole entry): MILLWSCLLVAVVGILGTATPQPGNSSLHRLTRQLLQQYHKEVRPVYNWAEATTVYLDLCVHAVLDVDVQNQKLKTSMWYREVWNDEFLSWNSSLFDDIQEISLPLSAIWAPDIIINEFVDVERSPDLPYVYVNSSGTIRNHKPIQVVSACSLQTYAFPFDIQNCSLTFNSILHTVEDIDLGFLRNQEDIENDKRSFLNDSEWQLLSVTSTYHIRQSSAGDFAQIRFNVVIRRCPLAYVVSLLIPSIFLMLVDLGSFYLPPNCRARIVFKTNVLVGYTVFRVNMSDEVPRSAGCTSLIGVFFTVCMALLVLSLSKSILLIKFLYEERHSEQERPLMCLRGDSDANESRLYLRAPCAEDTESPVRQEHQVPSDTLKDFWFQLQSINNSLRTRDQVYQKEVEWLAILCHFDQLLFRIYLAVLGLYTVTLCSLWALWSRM
In words: Binding affinity was measured on 5-hydroxytryptamine 3 receptor using [3H]-BRL 43694 as radioligand in rat posterior cortex.

The target in assay [4] is 5-hydroxytryptamine receptor 4 (Cavia porcellus) (UniProt O70528). Briefly: 5-hydroxytryptamine 4 receptor agonist activity is expressed as percent of the maximum 5-HT response. The assay is classed as functional.
Assay [5] has as its target T1, 5-hydroxytryptamine receptor 4. In words: 5-hydroxytryptamine 4 receptor antagonist activity, concentration which gave 50% reduction of the 5-HT-induced contractions in the guinea pig ileum. In kind it is functional, tissue-based.
For assay [6] the target is unchanged.
The target of assay [7] is T2, Serotonin 3 (5-HT3) receptor. In words: Binding affinity was measured on 5-hydroxytryptamine 3 receptor using [3H]-BRL 43694 as radioligand in rat posterior cortex.
The target of assay [8] is T1, 5-hydroxytryptamine receptor 4. In words: 5-hydroxytryptamine 4 receptor antagonist activity, concentration which gave 50% reduction of the 5-HT-induced contractions in the guinea pig ileum; Inactive up to 10E-5 M. The assay is classed as functional, tissue-based.

pEC50, pIC50, pKi: −log10 of the molar value. Where only a bound is given, the exact number is not on record here.

Chain of 5-hydroxytryptamine receptor 4 (Cavia porcellus) (O70528 whole entry): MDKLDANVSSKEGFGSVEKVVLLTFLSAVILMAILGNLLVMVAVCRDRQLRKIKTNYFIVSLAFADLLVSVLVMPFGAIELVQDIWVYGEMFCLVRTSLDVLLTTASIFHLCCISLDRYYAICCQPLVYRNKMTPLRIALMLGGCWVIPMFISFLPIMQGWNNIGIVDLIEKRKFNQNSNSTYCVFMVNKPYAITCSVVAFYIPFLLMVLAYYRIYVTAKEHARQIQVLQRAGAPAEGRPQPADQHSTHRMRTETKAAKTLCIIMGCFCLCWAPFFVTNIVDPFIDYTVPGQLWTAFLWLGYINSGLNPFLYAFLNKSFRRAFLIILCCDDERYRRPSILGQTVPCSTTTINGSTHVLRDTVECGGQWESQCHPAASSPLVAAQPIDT
T1 sequence (O70528 whole entry): as above
Chain of 5-hydroxytryptamine receptor 4 (Rattus norvegicus, UniProt Q62758) (Q62758 whole entry): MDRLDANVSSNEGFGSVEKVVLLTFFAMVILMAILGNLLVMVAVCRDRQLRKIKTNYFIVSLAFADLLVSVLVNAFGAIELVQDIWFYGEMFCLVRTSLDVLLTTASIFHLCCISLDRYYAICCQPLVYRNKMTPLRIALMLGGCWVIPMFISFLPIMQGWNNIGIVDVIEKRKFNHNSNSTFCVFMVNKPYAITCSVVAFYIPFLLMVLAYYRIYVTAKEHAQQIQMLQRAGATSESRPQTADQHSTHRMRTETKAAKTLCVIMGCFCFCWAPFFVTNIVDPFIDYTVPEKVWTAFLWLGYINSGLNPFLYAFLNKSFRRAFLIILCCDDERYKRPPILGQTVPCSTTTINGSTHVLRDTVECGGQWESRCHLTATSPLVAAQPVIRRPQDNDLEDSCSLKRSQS

As usually defined, the pEC50 is −log10 of the EC50, conventionally taken in molar units. A higher pEC50 goes with a small EC50. By pKi is commonly meant the negative decadic logarithm of the Ki, by convention in mol/L. Molecule `COc1cc(N)c(Cl)cc1C(=O)OCCN1CCCC(O)C1` (stereo in doubt; 7j) [listing 1 of 2 here] showed a pEC50 in assay [1] of 8.30. Moreover, the pKi in assay [2] is 8.32; in assay [3], < 6.00.
`COc1cc(N)c(Cl)cc1C(=O)OCCN1C2CCCC1CC2` showed a pEC50 in assay [1] of 7.40. The pKi in assay [2] was 8.03. This molecule came in with an Activity in assay [4] of 63%.
In assay [1], `COc1cc(N)c(Cl)cc1C(=O)OCCCN1CCCCC1` showed a negative-log EC50 (pEC50) of 7.52. Further, in assay [2], the pKi was 7.55. Also, in assay [4], the Activity was determined as 52%.
In turn, `COc1cc(N)c(Cl)cc1C(=O)OCCN1CCCC(O)C1` (stereo in doubt; 7j) [listing 2 of 2 here] yielded an Activity in assay [4] of 64%.
What is called pIC50 is the negative decadic logarithm of the IC50, by convention in mol/L. Lower therefore signals a high IC50. `COc1cc(N)c(Cl)cc1C(=O)OCCN1CC(C)OC(C)C1` (centres undefined) showed a pKi in assay [2] of 8.20. The molecule further showed a pIC50 in assay [5] of 6.52. Besides, the IC50 result in assay [6] was “Not Active”.
Take `COc1cc(N)c(Cl)cc1C(=O)OCCN1CCCC(O)C1` (stereo in doubt; 7l) [listing 1 of 2 here]: in assay [4], the Activity stood at 61%.
In assay [2], `CCN(CC)CCOC(=O)c1cc(Cl)c(N)cc1OC` showed a negative-log Ki (pKi) of 8.26.
Take `COc1cc(N)c(Cl)cc1C(=O)N[C@H]1CN2CCC1CC2` [(R)ZACOPRIDE]: the pEC50 in assay [1] is 6.78. Also, in assay [2], the pKi is 5.82. In assay [4], the Activity is 84%.
In turn, `COc1cc(N)c(Cl)cc1C(=O)OCCN1CCCCC1` had a negative logarithm of the Ki (pKi) in assay [7] of 6.14.
With `COc1cc(N)c(Cl)cc1C(=O)OCCN1CCCCC1C` (centres undefined), in assay [1], the pEC50 is 8.22. For the same molecule, the pKi in assay [2] is 8.11. The Activity in assay [4] is 82%.
With `NCCc1c[nH]c2ccc(O)cc12` [SEROTONIN], in assay [6], the IC50 result is “Not Active”.
Regarding `COc1cc(N)c(Cl)cc1C(=O)OCCN1CC=CCC1`, the pEC50 in assay [1] was 7.54. For the same molecule, in assay [2], the pKi was 8.04. Besides, the Activity in assay [4] amounted to 65%.
In assay [1], `COc1cc(N)c(Cl)cc1C(=O)OCCN1CCOCC1` gave a pEC50 of 6.95. In addition, the pKi in assay [2] is 7.45. The IC50 result in assay [8] is “Not Active”.
As for `COc1cc(N)c(Cl)cc1C(=O)OC1CC2CCC(C1)N2C` (centres undefined), the Activity in assay [4] was 41%.
In assay [1], `COc1cc(N)c(Cl)cc1C(=O)OCCN1CCC(O)CC1` showed a pEC50 of 7.85. In assay [2], this molecule had a pKi of 8.85. Also, the Activity in assay [4] was determined as 72%.
Regarding `COc1cc(N)c(Cl)cc1C(=O)OCC[n+]1ccccc1`, in assay [1], the pEC50 was 7.77. In assay [2], the pKi was 8.21.
For `COc1cc(N)c(Cl)cc1C(=O)OCC[N+]12CCC(CC1)CC2`, the pEC50 in assay [1] was 8.28. This molecule had a pKi in assay [2] of 8.22. In addition, the Activity in assay [4] was 78%. Moreover, in assay [5], the pIC50 is ~7.70.
In the case of `COc1cc(N)c(Cl)cc1C(=O)NCCN1CC(C)CC(C)C1` (centres undefined), in assay [1], the pEC50 was ~6.03. The molecule further gave a pKi in assay [2] of 6.99. The same molecule returned an Activity in assay [4] of 80%.
Regarding `COc1cc(N)c(Cl)cc1C(=O)NCCN1CCCCC1`, the pEC50 in assay [1] is < 6.00. The pKi in assay [2] is 6.87. The pIC50 in assay [5] was < 6.00.
In turn, `COc1cc(N)c(Cl)cc1C(=O)OCCN1C(C)CCCC1C` (centres undefined) showed a pKi in assay [2] of 7.40.
For the molecule `Cn1cc(C(=O)OCC2CCN(CCNS(C)(=O)=O)CC2)c2ccccc21`, the pKi in assay [2] was 9.82. Besides, the pIC50 in assay [5] was 7.89.
In turn, `COc1cc(N)c(Cl)cc1C(=O)OCCN1CC2CCC(CC2)C1` showed a pEC50 in assay [1] of 8.11. In assay [2], the pKi was 8.26. The same molecule came in with an Activity in assay [4] of 61%.
In turn, `COc1cc(N)c(Cl)cc1C(=O)OCCN1CCCC(O)C1` (stereo in doubt; 7k) [listing 1 of 2 here] had a pEC50 in assay [1] of 8.40. Also, the negative logarithm of the Ki (pKi) in assay [2] was 9.00.
On to `COc1cc(N)c(Cl)cc1C(=O)OCCN1CCN(c2ccccc2)CC1`, for which, in assay [5], the negative logarithm of the IC50 (pIC50) was 7.00.
Consider `COc1cc(N)c(Cl)cc1C(=O)OCCN1CCCC1`, for which the pEC50 in assay [1] is 7.40. The pKi in assay [2] is 8.27. The molecule further displayed an Activity in assay [4] of 50%. This molecule also gave a negative logarithm of the IC50 (pIC50) in assay [5] of 6.70.
In assay [1], `CC(C)n1c(=O)n(C(=O)NC2CC3CCC(C2)N3C)c2ccccc21` (centres undefined) showed a pEC50 of 7.37. This molecule also gave a negative-log Ki (pKi) in assay [2] of 6.59. In assay [6], the IC50 result was “Not Active”.
In the case of `COc1cc(N)c(Cl)cc1C(=O)OCCN1CCCC(C)C1` (centres undefined), in assay [1], the pEC50 was 7.82. The pKi in assay [2] is 9.03; in assay [7], < 6.00. In assay [4], the Activity was 54%.
`COc1cc(N)c(Cl)cc1C(=O)OCCN1CCCC(O)C1` (stereo in doubt; 7k) [listing 2 of 2 here] displayed an Activity in assay [4] of 62%.
For the molecule `COc1cc(N)c(Cl)cc1C(=O)N[C@@H]1CN2CCC1CC2`, in assay [1], the pEC50 is 7.11. The same molecule registered an Activity in assay [4] of 100%.
Turning to `COc1cc(N)c(Cl)cc1C(=O)OCCN1CC(C)CC(C)C1` (stereo in doubt; 7g), the pKi in assay [2] is 9.59; in assay [7], < 6.00. Besides, in assay [5], the pIC50 was 7.96.
`COc1cc(N)c(Cl)cc1C(=O)NC1CC2CCC(C1)N2C` (centres undefined) showed a pKi in assay [2] of 7.31.
With `COc1cc(N)c(Cl)cc1C(=O)OCCN(C)C`, in assay [1], the pEC50 was 6.74. This molecule had a pKi in assay [2] of 7.33. In assay [4], this molecule displayed an Activity of 60%. In assay [5], the pIC50 is 6.22.
`COc1cc(N)c(Cl)cc1C(=O)OCCN1CCCC(O)C1` (stereo in doubt; 7l) [listing 2 of 2 here] showed a pEC50 in assay [1] of 8.00. In assay [2], this molecule showed a negative-log Ki (pKi) of 8.70.
Molecule `COc1cc(N)c(Cl)cc1C(=O)OCCN1CCC(C(N)=O)CC1` had a pEC50 in assay [1] of 7.72. Besides, in assay [2], the pKi was 8.84. In addition, the Activity in assay [4] is 65%.
`COc1cc(N)c(Cl)cc1C(=O)OCCN1CCCCCC1`: the pEC50 in assay [1] is 8.36. Moreover, the pKi in assay [2] was 9.04. The molecule further displayed an Activity in assay [4] of 59%.
As to `COc1cc(N)c(Cl)cc1C(=O)OCCN1CCC(C)CC1`, the pEC50 in assay [1] is 8.52. The pKi in assay [2] is 8.39. This molecule also displayed an Activity in assay [4] of 57%.
As to `COc1cc(N)c(Cl)cc1C(=O)OCCN1CC(C)CC(C)C1` (stereo in doubt; 7h), the pKi was 8.63 in assay [2] and < 6.00 in assay [7]. Further, in assay [5], the negative-log IC50 (pIC50) is 7.89.
In turn, `COc1cc(N)c(Cl)cc1C(=O)OCCN1CCCC(C)(C)C1` showed a pKi in assay [2] of 8.76. The same molecule gave a pIC50 in assay [5] of 6.82.
For `COc1cc(N)c(Cl)cc1C(=O)OCCN1CCC(NC(C)=O)CC1`, the pEC50 in assay [1] is 7.89. In assay [2], this molecule gave a pKi of 8.98. Further, the Activity in assay [4] amounted to 59%.
`COc1cc(N)c(Cl)cc1C(=O)N(C)CCN1CCCCC1`: the pEC50 in assay [1] was < 6.00. In assay [2], the pKi was < 6.00. For the same molecule, the negative-log IC50 (pIC50) in assay [5] was < 6.00.
As to `COc1cc(N)c(Cl)cc1C(=O)NCCN(C)C`, in assay [2], the pKi was < 6.00.
